Legend:
[1] = molecular target: T1, CYP2D6 (Homo sapiens, UniProt P10635); assay: CYP inhibition assay in human liver microsome; format: in vitro ADME; conditions: human liver microsomes, probe dextromethorphan, 10µM test compound, dextromethorphan substrate, <0: not or weak inhibitor, read-out: CYP 2D6 inhibition %@10µM
T1 construct: tissue BD-Gentest 452117; host or cells: human liver microsomes
How it was run: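 HLM mixed with CYP2D6 substrate, preincubated 10 min at 37 °C, started with NADPH regenerating system and run 10 min at 37 °C before acetonitrile quench. Metabolite measured by RapidFire MS/MS against D3-dextrorphan internal standard. % inhibition scaled between DMSO and concentrated-inhibitor controls.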

[2] = molecular target: T2, hTLR7 (Homo sapiens, UniProt Q9NYK1); design: host or cells: HEK; conditions: data disclosed in US20150105370; read-out: HEK/hTLR7 IC50; cited from earlier work
T2 sequence (Q9NYK1 27-1049): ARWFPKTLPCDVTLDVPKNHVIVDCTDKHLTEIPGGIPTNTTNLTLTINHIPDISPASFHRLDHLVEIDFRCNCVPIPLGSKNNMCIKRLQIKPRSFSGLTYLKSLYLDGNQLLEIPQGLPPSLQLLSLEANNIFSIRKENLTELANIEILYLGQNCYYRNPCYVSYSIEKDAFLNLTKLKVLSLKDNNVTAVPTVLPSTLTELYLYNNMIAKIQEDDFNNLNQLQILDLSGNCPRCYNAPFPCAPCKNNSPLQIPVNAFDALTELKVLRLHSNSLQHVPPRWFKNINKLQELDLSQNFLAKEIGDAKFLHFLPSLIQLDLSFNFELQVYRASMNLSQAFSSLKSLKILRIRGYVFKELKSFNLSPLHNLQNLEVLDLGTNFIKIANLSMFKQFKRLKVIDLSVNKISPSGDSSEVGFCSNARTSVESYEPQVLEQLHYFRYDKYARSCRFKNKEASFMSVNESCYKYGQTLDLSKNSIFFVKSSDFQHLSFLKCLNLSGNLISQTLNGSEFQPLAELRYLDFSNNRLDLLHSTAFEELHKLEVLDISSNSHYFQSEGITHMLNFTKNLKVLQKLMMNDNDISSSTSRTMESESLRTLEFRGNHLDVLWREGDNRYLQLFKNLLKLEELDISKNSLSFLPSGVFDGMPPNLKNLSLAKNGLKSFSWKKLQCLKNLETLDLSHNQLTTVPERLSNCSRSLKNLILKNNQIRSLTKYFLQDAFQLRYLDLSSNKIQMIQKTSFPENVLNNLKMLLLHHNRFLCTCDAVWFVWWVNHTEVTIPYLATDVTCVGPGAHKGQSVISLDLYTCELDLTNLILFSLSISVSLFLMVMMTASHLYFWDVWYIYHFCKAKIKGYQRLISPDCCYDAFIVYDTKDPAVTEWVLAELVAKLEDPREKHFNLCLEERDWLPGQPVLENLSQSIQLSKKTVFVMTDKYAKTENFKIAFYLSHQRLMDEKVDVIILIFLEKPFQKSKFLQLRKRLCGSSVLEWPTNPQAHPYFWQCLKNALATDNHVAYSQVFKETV

T1 sequence (P10635 whole entry): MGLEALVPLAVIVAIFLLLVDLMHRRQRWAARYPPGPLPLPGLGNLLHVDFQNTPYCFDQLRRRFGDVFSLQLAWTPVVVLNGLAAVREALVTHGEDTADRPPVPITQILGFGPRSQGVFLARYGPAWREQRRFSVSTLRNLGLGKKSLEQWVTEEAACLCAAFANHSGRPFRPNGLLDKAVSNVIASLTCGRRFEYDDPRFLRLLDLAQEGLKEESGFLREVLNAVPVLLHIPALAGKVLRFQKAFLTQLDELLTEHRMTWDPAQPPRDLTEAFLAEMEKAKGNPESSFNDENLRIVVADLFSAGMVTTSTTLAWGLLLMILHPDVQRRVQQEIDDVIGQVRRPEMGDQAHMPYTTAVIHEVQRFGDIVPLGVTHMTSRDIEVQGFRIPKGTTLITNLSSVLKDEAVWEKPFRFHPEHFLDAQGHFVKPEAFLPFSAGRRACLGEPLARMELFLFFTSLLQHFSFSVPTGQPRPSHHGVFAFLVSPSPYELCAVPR

| Compound | inhibition at 10 min, 10 µM [1] | IC50 [2] |
| --- | --- | --- |
| C[C@@H]1CN(c2ccc(C#N)c3nccnc23)C[C@H](CN2CCN(c3cc4c(cn3)CCN[C@@H]4C)CC2)O1 (single isomer, unassigned) [Example 87] | -2.5% | – |
| C[C@@H]1CN(c2ccc(C#N)c3nccnc23)C[C@H](CN2CCN(c3cc4c(cn3)CCN[C@H]4C)CC2)O1 (single isomer, unassigned) [Example 88] | 9.5% | – |
| C[C@@H]1CN(c2ccc(C#N)c3ncccc23)C[C@H](CN2CCN(c3ccncc3)CC2)O1 [ER-888286, reference compound] | 52.5% | 1.37 µM |
| C[C@@H]1CN(c2ccc(C#N)c3ncccc23)C[C@H](CN2CCN(c3ccc4c(c3)CNCC4)CC2)O1 [Example 9, 5-[(2R,6S)-2-methyl-6-[[4-(1,2,3,4-tetrahydroisoquinolin-7-yl)piperazin-1-yl]methyl]morpholin-4-yl]quinoline-8-carbonitrile] | -2.5% | – |
| C[C@@H]1CN(c2ccc(C#N)c3ncccc23)C[C@H](CN2CCN(c3cnc4c(c3)CNC4)CC2)O1 [Example 10, 5-[(2S,6R)-2-[[4-(6,7-dihydro-5H-pyrrolo[3,4-b]pyridin-3-yl)piperazin-1-yl]methyl]-6-methyl-morpholin-4-yl] quinoline-8-carbonitrile] | 2.5% | – |

Reference: patent EP3807270B1, “NOVEL HETEROARYL HETEROCYCLYL COMPOUNDS FOR THE TREATMENT OF AUTOIMMUNE DISEASE” (F. Hoffmann-La Roche AG, priority 2018, dated 2019)
